From ChEMBL document CHEMBL6127086, “Recent advances in dual PROTACs degrader strategies for disease treatment” (Eur J Med Chem, 2024) come the findings set out here.

Structures are written as SMILES. Starred links: 1 amine or outer side, 2 acyl side, 3 side chain; linkers in the order of their positions; H or OH if unused. Non-standard residues stand in square brackets, D forms with d. Residues, ends and D or L forms follow the SMILES beside them. *: point of attachment. X1 = O=C([C@H](Cc1ccc(C(F)(F)P(=O)(O)O)cc1)O[*:1])[*:2]; NHCH2(1,3-C6H4)CH2CO = O=C(Cc1cccc(CN[*:1])c1)[*:2]; Phenylacetyl(4-OH,3-OMe) = COc1cc(CC(=O)*)ccc1O; Benzoyl(3-Br,4-Me) = Cc1ccc(C(=O)*)cc1Br; X2 = Cc1ncsc1-c1ccc([C@@H](C)N*)cc1; Hyp = O=C(O)[C@@H]1C[C@@H](O)CN1; Tle = CC(C)(C)[C@H](N)C(=O)O

As usually defined, the DC50 is the concentration at which degradation of the target reaches its halfway point. By EC50 is commonly meant the concentration that produces a half-maximal response. The term IC50 denotes the concentration that gives 50% inhibition. In general, Emax refers to the size of the effect at its maximum, as opposed to the concentration needed.

For assay [1], the target named is T1, Protein cereblon/Bromodomain-containing protein 4 (Homo sapiens, UniProt O60885+Q96SW2). As to the kind of experiment: PROTAC activity at CRBN/BRD4 (unknown origin) expressed in HEK293 cells assessed as induction of BRD4 degradation measured after 4 hrs by Western blot analysis. Format: cell-based.
Assay [2] addresses T1, Protein cereblon/Bromodomain-containing protein 4. Nature of the assay: PROTAC activity at CRBN/BRD4 (unknown origin) expressed in HEK293 cells assessed as induction of BRD4 degradation incubated for 6 hrs by Western blot analysis. It counts as cell-based. A general note: A western blot detects proteins with antibodies after separation by electrophoresis.
The test system of assay [3] is RKO. Nature of the assay: Antiproliferative activity against human RKO cells assessed as reduction in cell viability by Celltiter-glo reagent based analysis. It counts as functional. (In general: In ATP-based viability assays light output follows the ATP content of the culture.)
The target of assay [4] is T2, von Hippel-Lindau disease tumor suppressor/Bromodomain-containing protein 2 (Homo sapiens, UniProt P25440+P40337). Nature of the assay: PROTAC activity at human VHL/BRD2 in human HeLa cells assessed as degradation of BRD2 incubated for 16 hrs by Western blot analysis. Format: cell-based.
For assay [5], the target named is T2, von Hippel-Lindau disease tumor suppressor/Bromodomain-containing protein 2. Nature of the assay: PROTAC activity at VHL/BRD2 in human 22Rv1 cells assessed as degradation of BRD2 incubated for 16 hrs by Western blot analysis. Format: cell-based.
The subject of assay [6] is CWR22R. Nature of the assay: Antiproliferative activity against human 22Rv1 cells assessed as reduction in cell viability incubated for 72 hrs by Celltiter- Glo assay. Format: functional, cell-based. The note with it: 22Rv1, 72 h.
For assay [7], the system named is VCaP. Nature of the assay: Antiproliferative activity against human VCaP cells assessed as reduction in cell viability incubated for 72 hrs by Celltiter- Glo assay. Format: functional, cell-based.
The nature of assay [8]: Antiproliferative activity against human LNCaP-95 cells assessed as reduction in cell viability incubated for 72 hrs by Celltiter- Glo assay. The note with it: LNCaP-95, 72 h. Format: functional, cell-based.
The target in assay [9] is von Hippel-Lindau disease tumor suppressor/Bcl-2-like protein 1 (Homo sapiens, UniProt Q07817+P40337). As to the kind of experiment: PROTAC activity at VHL/BCL-XL in human Jurkat cells assessed as induction of BCL-XL degradation incubated for 16 hrs by immunoblot analysis. It counts as cell-based.
The target of assay [10] is von Hippel-Lindau disease tumor suppressor/WD repeat-containing protein 5 (Homo sapiens, UniProt P61964+P40337). Nature of the assay: PROTAC activity at VHL/WDR5 in human MIA PaCa-2 cells assessed as degradation of WDR5 protein incubated for 18 hrs by Western blotting analysis. It counts as cell-based.
Assay [11] deals with T3, Cereblon/Ikaros (Homo sapiens, UniProt Q96SW2+Q13422). Nature of the assay: PROTAC activity at CRBN/IKZF1 in human MV4-11 cells assessed as degradation of IKZF1 protein incubated for 18 hrs by Western blotting analysis. It counts as cell-based.
For assay [12], the target named is T3, Cereblon/Ikaros. As to the kind of experiment: PROTAC activity at CRBN/IKZF1 in human MV4-11 cells assessed as maximum degradation of protein at 0.1 uM incubated for 18 hrs by Western blotting analysis relative to control. It counts as cell-based.
The target of assay [13] is von Hippel-Lindau disease tumor suppressor/Bromodomain-containing protein 4 (Homo sapiens) (UniProt O60885+P40337). As to the kind of experiment: PROTAC activity at human VHL/BRD4 in human HT-1080 cells assessed as maximum degradation of BRD4 at 0.2 uM incubated for 24 hrs by Western blot analysis relative to control. Format: cell-based.
Assay [14] deals with Protein cereblon/CREB-binding protein (Homo sapiens) (UniProt Q92793+Q96SW2). As to the kind of experiment: PROTAC activity at CRBN/CBP in human MV4-11 cells assessed as induction of protein degradation by measuring maximal degradation at 250 nM incubated for 24 hrs by Western blotting analysis relative to control. Format: cell-based.
Assay [15] deals with Protein cereblon/Cyclin-dependent kinase 4 (Homo sapiens, UniProt P11802+Q96SW2). As to the kind of experiment: Protac activity at CRBN/CDK4 in human MDA-MB-231 cells assessed as induction of CDK4 degradation measured after 6 hrs by Western blot analysis. It counts as cell-based.
The target of assay [16] is Protein cereblon/Cyclin-dependent kinase 6 (Homo sapiens, UniProt Q00534+Q96SW2). As to the kind of experiment: Protac activity at CRBN/CDK6 in human MDA-MB-231 cells assessed as induction of CDK6 degradation measured after 18 hrs by Western blot analysis. Format: cell-based.
The target of assay [17] is Protein cereblon/Bromodomain-containing protein 2 (Homo sapiens, UniProt P25440+Q96SW2). As to the kind of experiment: PROTAC activity at CRBN/BRD2 in human MV4-11 cells assessed as degradation of BRD2 protein incubated for 4 hrs by Western blotting assay. Format: cell-based.
Assay [18] concerns the target Protein cereblon/Bromodomain-containing protein 3 (Homo sapiens, UniProt Q15059+Q96SW2). As to the kind of experiment: PROTAC activity at CRBN/BRD3 in human MV4-11 cells assessed as degradation of BRD3 protein incubated for 4 hrs by Western blotting assay. It counts as cell-based.
A short description of assay [19]: Antiproliferative activity against human MINO cells assessed as reduction in cell viability incubated fro 72 hrs by Celltiter-glo reagent based analysis. It counts as functional.
In assay [20] the target is T4, Protein cereblon/Tyrosine-protein phosphatase non-receptor type 1 (Homo sapiens, UniProt P18031+Q96SW2). As to the kind of experiment: PROTAC activity at PTP1B/CRBN human HepG2 cells assessed as protein degradation incubated for 16 hrs by Western blot analysis. Format: cell-based.
Assay [21] deals with T4, Protein cereblon/Tyrosine-protein phosphatase non-receptor type 1. Nature of the assay: PROTAC activity at PTP1B/CRBN human HepG2 cells assessed as protein degradation incubated for 24 hrs by Western blot analysis. Format: cell-based.
In assay [22] the test system is OVCAR-8. Nature of the assay: Antiproliferative activity against human OVCAR-8 cells assessed as inhibition of growth rate measured for 72 hrs. It counts as functional.

In the case of `Cc1ncsc1-c1ccc([C@H](C)NC(=O)[C@@H]2C[C@@H](O)CN2C(=O)[C@@H](NC(=O)OCC(C)(COCCOCCOCCNC(=O)C[C@@H]2N=C(c3ccc(Cl)cc3)c3c(sc(C)c3C)-n3c(C)nnc32)COCCOCCOCCNc2cc3c(cc2F)C(=O)N(C2CCC(=O)NC2=O)C3=O)C(C)(C)C)cc1` (some centres not stated), the DC50 in [1] turned out to be 2.3 nM; in assay [2] it was 2.1 nM; in [4], 15 nM. Also, the EC50 in assay [3] worked out at 111 nM.

For the compound `Cc1ncsc1-c1ccc([C@H](C)NC(=O)[C@@H]2C[C@@H](O)CN2C(=O)[C@@H](NC(=O)COCCCOCCNC(=O)C[C@@H]2N=C(c3ccc(Cl)cc3)c3c(sc(C)c3C)-n3c(C)nnc32)C(C)(C)C)cc1`, the DC50 in [5] is less than 5 nM. Also, the concentration for half-maximal inhibition (IC50) in assay [6], in assay [7] and in assay [8] was less than 1 nM in each case.

Consider `Cc1ncsc1-c1ccc([C@H](C)NC(=O)[C@@H]2C[C@@H](O)CN2C(=O)[C@@H](NC(=O)CN2CCN(CC(=O)N3CCN(C[C@]4(C)CCC(c5ccc(Cl)cc5)=C(CN5CCN(c6ccc(C(=O)NS(=O)(=O)c7ccc(N[C@H](CCN8C[C@H]9C[C@@H]8CO9)CSc8ccccc8)c(S(=O)(=O)C(F)(F)F)c7)cc6)CC5)C4)CC3)CC2)C(C)(C)C)cc1`, for which, in assay [9], the DC50 was 0.6 nM.

In the case of `CN1CCN(c2ccc(-c3cccc(CN4CCN(CCNC(=O)CCCCCCCNc5cccc6c5C(=O)N(C5CCC(=O)NC5=O)C6=O)CC4)c3)cc2NC(=O)c2c[nH]c(=O)cc2C(F)(F)F)CC1` (configuration not stated), the DC50 was 42 nM in assay [10] and 500 nM in assay [11]. Moreover, the maximal response (Emax) in assay [12] came out at 90%.

In the case of `Cc1ncsc1-c1ccc(NC(=O)[C@@H]2C[C@@H](O)CN2C(=O)[C@@H](NC(=O)COCCOCCOc2cc(OCC(=O)OC(C)(C)C)ccc2NC(=O)C[C@@H]2N=C(c3ccc(Cl)cc3)c3c(sc(C)c3C)-n3c(C)nnc32)C(C)(C)C)cc1`, in assay [13], the Emax is 93%.

With `CNC(=O)N1CCc2c(c(N3CCCc4cc(-c5cnn(C)c5)c(C(F)F)cc43)nn2C2CCN(C(=O)CCOCCOCCOCCOCCNc3ccc4c(c3)C(=O)N(C3CCC(=O)NC3=O)C4=O)CC2)C1` (configuration not stated), the Emax in [14] was greater than 100%.

In the case of `CN(C)C(=O)c1cc2cnc(Nc3ccc(N4CCN(Cc5cn(CCCCCC(=O)Nc6cccc7c6C(=O)N(C6CCC(=O)NC6=O)C7=O)nn5)CC4)cn3)nc2n1C1CCCC1` (configuration not stated), the DC50 is 97 nM in assay [15] and 300 nM in assay [16].

`Cc1ncsc1-c1ccc(CNC(=O)[C@@H]2C[C@@H](O)CN2C(=O)[C@@H](NC(=O)OCC(C)(COCCOCCOCCNC(=O)C[C@@H]2N=C(c3ccc(Cl)cc3)c3c(sc(C)c3C)-n3c(C)nnc32)COCCOCCOCCNC(=O)C[C@@H]2N=C(c3ccc(Cl)cc3)c3c(sc(C)c3C)-n3c(C)nnc32)C(C)(C)C)cc1`: the 50% degradation concentration (DC50) in assay [17] was 1.1 nM; in [18], 3.3 nM.

Take `Cc1sc2c(c1C)C(c1ccc(Cl)cc1)=N[C@@H](CC(=O)Nc1ccc(OCCOCCOCCOCCNc3cccc4c3C(=O)N(C3CCC(=O)NC3=O)C4=O)cc1)c1nnc(C)n1-2` (some centres not stated): in [19], the half-inhibitory concentration (IC50) came to 14.5 nM.

Regarding `COc1cc(CC(=O)N[C@@H](Cc2ccccc2)C(=O)O[C@@H](Cc2ccc(C(F)(F)P(=O)(O)O)cc2)C(=O)N[C@@H](CCCCNC(=O)c2ccc(C)c(Br)c2)C(=O)NCc2cccc(CC(=O)N[C@H](C(=O)N3C[C@H](O)C[C@H]3C(=O)N[C@H](C)c3ccc(-c4scnc4C)cc3)C(C)(C)C)c2)ccc1O` ({Phenylacetyl(4-OH,3-OMe)}-F[X1]K(Benzoyl(3-Br,4-Me))[NHCH2(1,3-C6H4)CH2CO][Tle][Hyp]-X2), the 50% degradation concentration (DC50) came to 14.1 nM in assay [20] and 8.7 nM in assay [21].

Regarding `Cc1cc(S(=O)(=O)NCCOCCOCCOCCOCCNc2cccc3c2C(=O)N(C2CCC(=O)NC2=O)C3=O)ccc1Nc1ncc(Br)c(Nc2cccc(F)c2C(N)=O)n1` (configuration not stated), the GR50 in [22] turned out to be 33.1 nM.
